Species: Rattus norvegicus
Test: DrugMatrix - Regimen: Daily Repeat
Type: toxicity, organism-based, Sprague-Dawley
Set-up: regimen Daily Repeat, gender Male, age 6-8 weeks
Details: in vivo, po, route oral GAVAGE, vehicle 100 % WATER; for ABSOLUTE BASOPHIL / ABSOLUTE EOSINOPHIL / ABSOLUTE LYMPHOCYTE / ABSOLUTE MONOCYTE / ABSOLUTE SEGMENTED NEUTROPHIL / BASOPHIL / EOSINOPHIL / ERYTHROCYTE COUNT / HEMATOCRIT / HEMOGLOBIN / LEUKOCYTE COUNT / LYMPHOCYTE / MEAN CORPUSCULAR HEMOGLOBIN / MEAN CORPUSCULAR HEMOGLOBIN CONCENTRATION / MEAN CORPUSCULAR VOLUME / MONOCYTE / NEUTROPHIL / NUCLEATED RED BLOOD CELLS / PLATELET COUNT: tissue Blood; for ALANINE AMINOTRANSFERASE / ALBUMIN / ALKALINE PHOSPHATASE / ASPARTATE AMINOTRANSFERASE / BLOOD UREA NITROGEN / CARBON DIOXIDE / CHLORIDE / CHOLESTEROL / CREATINE PHOSPHOKINASE / CREATININE / GLUCOSE / LACTATE DEHYDROGENASE / LIPASE / PHOSPHORUS / POTASSIUM / SODIUM / TOTAL BILIRUBIN / TOTAL PROTEIN / URIC ACID: tissue Plasma
[1] = 0 mg/kg, 72 h, dose level Control, time 3 day
[2] = 0 mg/kg, 120 h, dose level Control, time 5 day
[3] = 11 mg/kg, 72 h, dose level Low, time 3 day

## CNS(=O)(=O)Cc1ccc2[nH]cc(CCN(C)C)c2c1
[1]
  ABSOLUTE BASOPHIL: 0 CELLS/uL
  ABSOLUTE EOSINOPHIL: 86.33 CELLS/uL
  ABSOLUTE LYMPHOCYTE: 12090.17 CELLS/uL
  ABSOLUTE MONOCYTE: 166.67 CELLS/uL
  ABSOLUTE SEGMENTED NEUTROPHIL: 1090.17 CELLS/uL
  BASOPHIL: 0%
  EOSINOPHIL: 0.67%
  ERYTHROCYTE COUNT: 5.57 x10E6/uL
  HEMATOCRIT: 35.33%
  HEMOGLOBIN: 13.83 G/DL
  LEUKOCYTE COUNT: 13.43 x10E3/uL
  LYMPHOCYTE: 89.83%
  MEAN CORPUSCULAR HEMOGLOBIN: 24.88 pg
  MEAN CORPUSCULAR HEMOGLOBIN CONCENTRATION: 39.15 G/DL
  MEAN CORPUSCULAR VOLUME: 63.52 fL
  MONOCYTE: 1.17%
  NEUTROPHIL: 8.33%
  NUCLEATED RED BLOOD CELLS: 0 /100WBC
  PLATELET COUNT: 1181.33 x10E3/uL
  ALANINE AMINOTRANSFERASE: 48.33 u/L
  ALBUMIN: 4.1 G/DL
  ALKALINE PHOSPHATASE: 395 u/L
  ASPARTATE AMINOTRANSFERASE: 81.83 u/L
  BLOOD UREA NITROGEN: 15.83 mg/dL
  CARBON DIOXIDE: 24.17 mmol/L
  CHLORIDE: 103.83 MEQ/L
  CHOLESTEROL: 63.67 mg/dL
  CREATINE PHOSPHOKINASE: 372.83 u/L
  CREATININE: 0.18 mg/dL
  GLUCOSE: 173.83 mg/dL
  LACTATE DEHYDROGENASE: 188.33 u/L
  LIPASE: 9.5 u/L
  PHOSPHORUS: 11.95 mg/dL
  POTASSIUM: 5.99 MEQ/L
  SODIUM: 144.43 MEQ/L
  TOTAL BILIRUBIN: 0.15 mg/dL
  TOTAL PROTEIN: 5.95 G/DL
  URIC ACID: 1.82 mg/dL
[2]
  ABSOLUTE BASOPHIL: 0 CELLS/uL
  ABSOLUTE EOSINOPHIL: 26.67 CELLS/uL
  ABSOLUTE LYMPHOCYTE: 7583.83 CELLS/uL
  ABSOLUTE MONOCYTE: 131.33 CELLS/uL
  ABSOLUTE SEGMENTED NEUTROPHIL: 674.83 CELLS/uL
  BASOPHIL: 0%
  EOSINOPHIL: 0.33%
  ERYTHROCYTE COUNT: 5.78 x10E6/uL
  HEMATOCRIT: 36.48%
  HEMOGLOBIN: 14.03 G/DL
  LEUKOCYTE COUNT: 8.42 x10E3/uL
  LYMPHOCYTE: 89.83%
  MEAN CORPUSCULAR HEMOGLOBIN: 24.3 pg
  MEAN CORPUSCULAR HEMOGLOBIN CONCENTRATION: 38.52 G/DL
  MEAN CORPUSCULAR VOLUME: 63.15 fL
  MONOCYTE: 1.67%
  NEUTROPHIL: 8.17%
  NUCLEATED RED BLOOD CELLS: 0 /100WBC
  PLATELET COUNT: 1186.67 x10E3/uL
  ALANINE AMINOTRANSFERASE: 50.17 u/L
  ALBUMIN: 4.07 G/DL
  ALKALINE PHOSPHATASE: 367.5 u/L
  ASPARTATE AMINOTRANSFERASE: 81.67 u/L
  BLOOD UREA NITROGEN: 16.17 mg/dL
  CARBON DIOXIDE: 32.33 mmol/L
  CHLORIDE: 101.5 MEQ/L
  CHOLESTEROL: 65.33 mg/dL
  CREATINE PHOSPHOKINASE: 255.33 u/L
  CREATININE: 0.17 mg/dL
  GLUCOSE: 139.33 mg/dL
  LACTATE DEHYDROGENASE: 95 u/L
  LIPASE: 10.5 u/L
  PHOSPHORUS: 10.38 mg/dL
  POTASSIUM: 6.11 MEQ/L
  SODIUM: 145.55 MEQ/L
  TOTAL BILIRUBIN: 0.17 mg/dL
  TOTAL PROTEIN: 5.98 G/DL
  URIC ACID: 0.93 mg/dL
[3]
  ABSOLUTE BASOPHIL: 0 CELLS/uL
  ABSOLUTE EOSINOPHIL: 39 CELLS/uL
  ABSOLUTE LYMPHOCYTE: 10656.67 CELLS/uL
  ABSOLUTE MONOCYTE: 38.67 CELLS/uL
  ABSOLUTE SEGMENTED NEUTROPHIL: 1065.67 CELLS/uL
  BASOPHIL: 0%
  EOSINOPHIL: 0.33%
  ERYTHROCYTE COUNT: 5.76 x10E6/uL
  HEMATOCRIT: 36.33%
  HEMOGLOBIN: 13.93 G/DL
  LEUKOCYTE COUNT: 11.8 x10E3/uL
  LYMPHOCYTE: 90.33%
  MEAN CORPUSCULAR HEMOGLOBIN: 24.2 pg
  MEAN CORPUSCULAR HEMOGLOBIN CONCENTRATION: 38.37 G/DL
  MEAN CORPUSCULAR VOLUME: 63.07 fL
  MONOCYTE: 0.33%
  NEUTROPHIL: 9%
  NUCLEATED RED BLOOD CELLS: 0 /100WBC
  PLATELET COUNT: 1289 x10E3/uL
  ALANINE AMINOTRANSFERASE: 45 u/L
  ALBUMIN: 3.83 G/DL
  ALKALINE PHOSPHATASE: 321.33 u/L
  ASPARTATE AMINOTRANSFERASE: 76.67 u/L
  BLOOD UREA NITROGEN: 14.67 mg/dL
  CARBON DIOXIDE: 26 mmol/L
  CHLORIDE: 103.33 MEQ/L
  CHOLESTEROL: 64.67 mg/dL
  CREATINE PHOSPHOKINASE: 413.33 u/L
  CREATININE: 0.14 mg/dL
  GLUCOSE: 155 mg/dL
  LACTATE DEHYDROGENASE: 166.33 u/L
  LIPASE: 8.67 u/L
  PHOSPHORUS: 12.6 mg/dL
  POTASSIUM: 6.24 MEQ/L
  SODIUM: 143.73 MEQ/L
  TOTAL BILIRUBIN: 0.17 mg/dL
  TOTAL PROTEIN: 5.63 G/DL
  URIC ACID: 1.4 mg/dL

Reference: ChEMBL document CHEMBL3885881, “DrugMatrix”
